From ChEMBL document CHEMBL5104196, “Discovery of Novel, Potent, and Selective Small-Molecule Menin-Mixed Lineage Leukemia Interaction Inhibitors through Attempting Introduction of Hydrophilic Groups” (J Med Chem, 2022)
Converted amounts (≈) assume the structure as drawn. The source made the active and inactive calls. The calls are words filed in the database; no cut-off is given here.

Columns and labels:
[1] = Metabolic stability in Beagle dog liver microsome assessed as intrinsic clearance measured upto 60 min by UPLC-MS/MS analysis; type: ADME, Canis lupus familiaris; conditions: microsomes, 1 h
[2] = AUC (0 to t) in Sprague-Dawley rat at 15 mg/kg, po; type: ADME, organism-based; set-up: dose 15 mg/kg, route po; conditions: in vivo
[3] = target: Casein kinase I (Homo sapiens) (UniProt Q9HCP0+P78368+P48730+P49674+P48729); experiment: Inhibition of CK1 (unknown origin) at 1 uM in presence of ATP at Km concentration by Mobility shift assay relative to control; type: protein assay
MV4-11 [4] = experiment: Reversible differentiation arrest in human MV4-11 cells at 0.1 to 10 uM measured after 7 days by flow cytometric analysis; type: functional, cell-based; conditions: dose 0.1-10 µM, time 7.0 day
Homo sapiens [5] = species: Homo sapiens; experiment: Inhibition of CMGC (unknown origin) at 1 uM in presence of ATP at Km concentration by Mobility shift assay relative to control
[6] = Metabolic stability in Sprague-Dawley rat liver assessed as intrinsic clearance measured upto 60 min by UPLC-MS/MS analysis; type: ADME, tissue-based; conditions: read-out: CLH
Homo sapiens [7] = species: Homo sapiens; experiment: Inhibition of AGC (unknown origin) at 1 uM in presence of ATP at Km concentration by Mobility shift assay relative to control
[8] = Volume of distribution at steady state in Sprague-Dawley rat at 15 mg/kg, po; type: ADME, organism-based; conditions: in vivo
[9] = Solubility of compound in phosphate buffer at pH 7.4 by spectrophotometric analysis; type: physicochemical
[10] = Cmax in Sprague-Dawley rat at 15 mg/kg, po; type: ADME, organism-based; set-up: dose 15 mg/kg, route po; conditions: in vivo
MV4-11 [11] = experiment: Induction of cell cycle arrest in human MV4-11 cells assessed as accumulation at S phase at 0.1 to 10 uM incubated for 24 hrs by PI/RNase staining based flow cytometry analysis; type: functional; conditions: dose 0.1-10 µM
MV4-11 [12] = experiment: Induction of cell cycle arrest in human MV4-11 cells assessed as accumulation at G2/M phase at 0.1 to 10 uM incubated for 24 hrs by PI/RNase staining based flow cytometry analysis; type: functional; conditions: dose 0.1-10 µM
[13] = Metabolic stability in CD-1 mouse liver microsome assessed as intrinsic clearance measured upto 60 min by UPLC-MS/MS analysis; type: ADME; conditions: microsomes, 1 h
Homo sapiens [14] = species: Homo sapiens; experiment: Inhibition of GAMK (unknown origin) at 1 uM in presence of ATP at Km concentration by Mobility shift assay relative to control

CN(C)CCOc1ccc2ncnc(NC3CCN(CC4CN(c5ccc(S(=O)(=O)C6CC6)cc5)C4)CC3)c2n1
CLint [1]: 13.9 µL/min/mg
AUC(0-t) [2]: 864 ng·h/mL
inhibition [3]: < 25%
Activity (MV4-11 [4]): Active
inhibition (Homo sapiens [5]): < 25%
CLint scaled [6]: 17.5 mL/min/kg
inhibition (Homo sapiens [7]): < 25%
Vdss [8]: 23 L/kg
solubility [9]: 398 µg/mL (≈ 704 µM)
Cmax [10]: 56.7 ng/mL
Activity (MV4-11 [11]): Active
Activity (MV4-11 [12]): Active
CLint [13]: 7.2 µL/min/mg
inhibition (Homo sapiens [14]): < 25%
